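96-well plates; 48 h exposure; 5 concentrations. Endpoints by linear interpolation between flanking doses. Not reached: highest tested concentration assigned. GI50 marks 50% less growth.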 Active and inactive are the calls of the source. No stated cut-off is given here; in the data, active = GI50 up to about 1.1 µM and inactive = higher.
Assays:
Test in all cases: inhibition of tumour cell growth, NCI panel, 48 h
A498 = system: A498
A549 = system: A549
HCC 2998 = system: HCC 2998
HCT-116 = system: HCT-116
KM12 = system: KM12
LOX IMVI = system: LOX IMVI
Malme-3M = system: Malme-3M
NCI-H522 = system: NCI-H522
OVCAR-5 = system: OVCAR-5
RPMI-8226 = system: RPMI-8226
SF-539 = system: SF-539
SK-MEL-28 = system: SK-MEL-28
SK-MEL-2 = system: SK-MEL-2
SK-OV-3 = system: SK-OV-3
SNB-78 = system: SNB-78
TK-10 = system: TK-10
U-251 = system: U-251
UACC-257 = system: UACC-257
MCF7 = system: MCF7
MDA-MB-231 = system: MDA-MB-231

| Compound | GI50 (A498) | GI50 (A549) | GI50 (HCC 2998) | GI50 (HCT-116) | GI50 (KM12) | GI50 (LOX IMVI) | GI50 (Malme-3M) | GI50 (NCI-H522) | GI50 (OVCAR-5) | GI50 (RPMI-8226) | GI50 (SF-539) | GI50 (SK-MEL-28) | GI50 (SK-MEL-2) | GI50 (SK-OV-3) | GI50 (SNB-78) | GI50 (TK-10) | GI50 (U-251) | GI50 (UACC-257) | GI50 (MCF7) | GI50 (MDA-MB-231) |
| --- | --- | --- | --- | --- | --- | --- | --- | --- | --- | --- | --- | --- | --- | --- | --- | --- | --- | --- | --- | --- |
| Cc1ccccc1NC(=O)C(=O)C(C(=O)c1ccccc1F)C1OC(=O)c2ccccc21 (stereo unspecified) | 45.8 µM (inactive) | 42.2 µM (inactive) | 11.5 µM (inactive) | 15 µM (inactive) | 23 µM (inactive) | 16 µM (inactive) | 18.8 µM (inactive) | 5.68 µM (inactive) | 41.8 µM (inactive) | 11.9 µM (inactive) | 8.32 µM (inactive) | 16.5 µM (inactive) | 24.7 µM (inactive) | 34.1 µM (inactive) | 13.3 µM (inactive) | 43 µM (inactive) | 7.53 µM (inactive) | 21.1 µM (inactive) | – | – |
| O=C(Nc1ccccc1[N+](=O)[O-])C(=O)C(C(=O)c1ccccc1-c1ccccc1)C1OC(=O)c2ccccc21 (stereo unspecified) | 21.7 µM (inactive) | 24.5 µM (inactive) | 14.8 µM (inactive) | 18.2 µM (inactive) | 16.2 µM (inactive) | 16.3 µM (inactive) | 13 µM (inactive) | 12.5 µM (inactive) | 20.3 µM (inactive) | 18.5 µM (inactive) | 11.6 µM (inactive) | 18.2 µM (inactive) | 16.7 µM (inactive) | 30.8 µM (inactive) | 20.1 µM (inactive) | 24 µM (inactive) | 11.6 µM (inactive) | 16.6 µM (inactive) | – | – |
| O=C(Nc1nc2ncn(CCI)c2c(=O)[nH]1)c1ccccc1 | 16 µM (inactive) | 76 µM (inactive) | > 100 µM (inactive) | > 100 µM (inactive) | > 100 µM (inactive) | > 100 µM (inactive) | > 100 µM (inactive) | 28.3 µM (inactive) | > 100 µM (inactive) | > 100 µM (inactive) | 26.1 µM (inactive) | > 100 µM (inactive) | > 53.5 µM (inactive) | 33.7 µM (inactive) | > 56.1 µM (inactive) | 31.3 µM (inactive) | 28.3 µM (inactive) | > 100 µM (inactive) | – | – |
| N#CC(C(=O)C(=O)Nc1c(Cl)cccc1Cl)c1ccccc1 (stereo unspecified) | > 10 µM (inactive) | > 10 µM (inactive) | > 10 µM (inactive) | > 10 µM (inactive) | > 10 µM (inactive) | 0.356 µM (active) | > 10 µM (inactive) | > 10 µM (inactive) | 0.906 µM (active) | > 10 µM (inactive) | > 10 µM (inactive) | > 10 µM (inactive) | > 10 µM (inactive) | > 10 µM (inactive) | > 10 µM (inactive) | > 10 µM (inactive) | > 10 µM (inactive) | > 10 µM (inactive) | – | – |
| CCCCc1c2c(nc3c1CCc1cc(C=O)c(N)nc1-3)/C(=C/c1ccccc1)CCC2 | 19.9 µM (inactive) | 19.6 µM (inactive) | 29.9 µM (inactive) | > 100 µM (inactive) | > 100 µM (inactive) | > 100 µM (inactive) | > 100 µM (inactive) | > 100 µM (inactive) | > 100 µM (inactive) | > 100 µM (inactive) | > 100 µM (inactive) | > 100 µM (inactive) | > 100 µM (inactive) | > 100 µM (inactive) | > 100 µM (inactive) | > 100 µM (inactive) | > 100 µM (inactive) | > 100 µM (inactive) | – | – |
| COc1cc2c(c(O)c1C)C(=O)C(Cl)=CC2=O | 19 µM (inactive) | 22.1 µM (inactive) | 22.3 µM (inactive) | 8.28 µM (inactive) | 19.5 µM (inactive) | 9.53 µM (inactive) | 4.21 µM (inactive) | 2.36 µM (inactive) | 28.5 µM (inactive) | 6.35 µM (inactive) | 18.1 µM (inactive) | 18.8 µM (inactive) | 15.6 µM (inactive) | > 53.1 µM (inactive) | 12.8 µM (inactive) | 7.41 µM (inactive) | 21.4 µM (inactive) | 9.95 µM (inactive) | 6.85 µM (inactive) | 12 µM (inactive) |
| CCC12C=CCN3CCC4(C(=C(C(=O)OC)[C@@H]1O)Nc1ccccc14)C32 (stereo partly specified) | 1.96 µM (inactive) | 2.09 µM (inactive) | 1.63 µM (inactive) | 1.57 µM (inactive) | 1.7 µM (inactive) | 1.64 µM (inactive) | 1.74 µM (inactive) | 1.61 µM (inactive) | 2.44 µM (inactive) | 2.17 µM (inactive) | 2.07 µM (inactive) | 1.95 µM (inactive) | 1.9 µM (inactive) | 2.43 µM (inactive) | 2.8 µM (inactive) | 2.24 µM (inactive) | 2.24 µM (inactive) | 1.1 µM (active) | – | – |
| CCN(CCCl)CCCNc1c2ccccc2nc2ccc(OC)cc12 | 1.19 µM (inactive) | 0.232 µM (active) | 0.535 µM (active) | 0.0585 µM (active) | 0.141 µM (active) | 0.129 µM (active) | 0.603 µM (active) | 0.144 µM (active) | 0.344 µM (active) | 0.0637 µM (active) | 0.142 µM (active) | 0.743 µM (active) | 0.418 µM (active) | 1.04 µM (active) | 0.357 µM (active) | 1.01 µM (active) | 0.199 µM (active) | 1.16 µM (inactive) | – | – |

— ChEMBL document CHEMBL1201862, “PubChem BioAssay data set” (2004)
